The nature of one data set: Oral exposure. It is filed as in vivo. Conditions: compared with Example II107 in WO 03/015774.
Data set [1] deals with T1, recombinant human pancreatic GLK (Homo sapiens, UniProt P35557).
T1 construct: 6-His (N); made in house; host or cells: E. coli BL21
T1 sequence (P35557 1-465): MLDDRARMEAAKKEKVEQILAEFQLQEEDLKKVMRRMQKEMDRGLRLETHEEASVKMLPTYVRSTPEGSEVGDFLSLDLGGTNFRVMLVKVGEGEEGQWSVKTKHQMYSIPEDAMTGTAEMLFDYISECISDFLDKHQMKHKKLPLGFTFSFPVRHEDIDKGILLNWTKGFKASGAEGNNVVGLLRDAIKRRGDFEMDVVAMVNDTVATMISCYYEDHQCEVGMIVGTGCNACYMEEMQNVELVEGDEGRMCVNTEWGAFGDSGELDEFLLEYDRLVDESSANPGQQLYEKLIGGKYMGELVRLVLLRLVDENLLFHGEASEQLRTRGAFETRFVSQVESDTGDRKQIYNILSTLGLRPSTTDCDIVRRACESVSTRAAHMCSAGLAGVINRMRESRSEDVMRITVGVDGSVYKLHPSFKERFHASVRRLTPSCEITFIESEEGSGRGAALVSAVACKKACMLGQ
The data set is described as follows: Enzymatic activity of glucokinase (GLK activation, G-6-P dehydrogenase coupled, OD 340 nm). It is filed as biochemical.

The subject of a further data set is Zucker obese fa/fa rats. As to the kind of experiment: Oral Glucose Tolerance Test (OGTT). Type of data set: in vivo, rat. Conditions: 10 mg/kg, given orally 120 minutes before glucose 2 g/kg; percent inhibition of blood glucose AUC vs vehicle. On the procedure:
The animals were fasted for 2 hours before use for experiments. A test compound or a vehicle was given orally 120 minutes before oral administration of a glucose solution at a dose of 2 g/kg body weight. Blood glucose levels were measured using a Accucheck glucometer from tail bled samples taken at different time points before and after administration of glucose (time course of 60 minutes). […] Percent inhibition was determined using the AUC in the vehicle-control group as zero percent inhibition.

Results on one compound are retold here after patent US20080280872A1, “Benzamide Derivatives and Their Use as Glucokinase Activating Agents” (priority 2004, published 2008).

For orientation: EC50 means the concentration that produces a half-maximal response.

For the compound `COC[C@H](C)Oc1cc(Oc2ccc(S(C)(=O)=O)cc2)cc(C(=O)Nc2nccs2)c1` [Example 11b, 3-[(1S)-2-methoxy-(1-methylethyl)oxy]-5-[4-(methylsulfonyl)phenoxy]-N-1,3-thiazol-2-ylbenzamide], the oral exposure entry in the data set “Oral exposure” is “superior oral exposure”. Moreover, the “EC50 values, Example 11b compared with Example II107 in WO 03/015774” value in data set [1] (comparison in words) is “broadly similar”. The EC50 in data set [1] (read-out: activating activity for glucokinase, EC50) amounted to 30 nM. The same compound returned an OGTT activity with Zucker obese fa/fa rats of 29%.
